Test results reported in patent publication US12129240B2, “Sulfonium salt, photoacid generator, curable composition and resist composition” (SAN-APRO LTD., priority 2019, dated 2024).

Assay: Evaluation of solubility in solvent
Format: physicochemical
Details: room temperature (25° C.), highest concentration completely dissolved; for Solubility Solvent-4: propylene carbonate; for Solubility Solvent-3: γ-butyrolactone

Row | Solubility Solvent-4 [wt %] | Solubility Solvent-3 [wt %] | Compound
1 | 2 | 7 | O=c1c2ccccc2sc2ccc(Sc3ccc([S+](c4ccccc4)c4ccc5sc6ccccc6c(=O)c5c4)cc3)cc12 (stereo not drawn) [Comparative Example 2, reference compound]
2 | 32 | 23 | O=c1c2ccccc2sc2ccc(Sc3ccc([S+](c4ccccc4)c4ccc5sc6ccccc6c(=O)c5c4)cc3)cc12 (stereo not drawn) [Comparative Example 3, reference compound]
3 | 3 | 9 | O=c1c2ccccc2sc2ccc(Sc3ccc([S+](c4ccccc4)c4ccc5sc6ccccc6c(=O)c5c4)cc3)cc12 (stereo not drawn) [Comparative Example 4, reference compound]
4 | 12 | 12 | Cc1cccc([S+](c2ccc3sc4ccccc4c(=O)c3c2)c2ccc(Sc3ccc4sc5ccccc5c(=O)c4c3)cc2C)c1 (stereo not drawn) [Example 4, [2-methyl-4-(2-thioxanthonylthio)phenyl](3-methylphenyl) (2-thioxanthonyl)sulfonium Hexafluorophosphate]
5 | 32 | 23 | Cc1cccc([S+](c2ccc3sc4ccccc4c(=O)c3c2)c2ccc(Sc3ccc4sc5ccccc5c(=O)c4c3)cc2C)c1 (stereo not drawn) [Example 6, [2-methyl-4-(2-thioxanthonylthio)phenyl](3-methylphenyl) (2-thioxanthonyl)sulfonium tris(pentafluoroethyl) Trifluorophosphate]
6 | 15 | 15 | Cc1cccc([S+](c2ccc3sc4ccccc4c(=O)c3c2)c2ccc(Sc3ccc4sc5ccccc5c(=O)c4c3)cc2C)c1 (stereo not drawn) [Example 7, [2-methyl-4-(2-thioxanthonylthio)phenyl](3-methylphenyl) (2-thioxanthonyl)sulfonium Hexafluoroantimonate]
7 | 21 | 10 | COc1cccc([S+](c2ccc3sc4ccccc4c(=O)c3c2)c2ccc(Sc3ccc4sc5ccccc5c(=O)c4c3)cc2OC)c1 (stereo not drawn) [Example 12, [2-methoxy-4-(2-thioxanthonylthio)phenyl](3-methoxyphenyl) (2-thioxanthonyl)sulfonium Hexafluorophosphate]
8 | 32 | 31 | COc1cccc([S+](c2ccc3sc4ccccc4c(=O)c3c2)c2ccc(Sc3ccc4sc5ccccc5c(=O)c4c3)cc2OC)c1 (stereo not drawn) [Example 14, [2-methoxy-4-(2-thioxanthonylthio)phenyl](3-methoxyphenyl) (2-thioxanthonyl)sulfonium tris(pentafluoroethyl) Trifluorophosphate]
9 | 20 | 18 | COc1cccc([S+](c2ccc3sc4ccccc4c(=O)c3c2)c2ccc(Sc3ccc4sc5ccccc5c(=O)c4c3)cc2OC)c1 (stereo not drawn) [Example 15, [2-methoxy-4-(2-thioxanthonylthio)phenyl](3-methoxyphenyl) (2-thioxanthonyl)sulfonium Hexafluoroantimonate]
10 | 27 | 25 | CC(C)(C)c1cccc([S+](c2ccc3sc4ccccc4c(=O)c3c2)c2ccc(Sc3ccc4sc5ccccc5c(=O)c4c3)cc2C(C)(C)C)c1 (stereo not drawn) [Example 20, [2-tert-butyl-4-(2-thioxanthonylthio)phenyl](3-tert-butylphenyl) (2-thioxanthonyl)sulfonium Hexafluorophosphate]
11 | 33 | 38 | CC(C)(C)c1cccc([S+](c2ccc3sc4ccccc4c(=O)c3c2)c2ccc(Sc3ccc4sc5ccccc5c(=O)c4c3)cc2C(C)(C)C)c1 (stereo not drawn) [Example 22, [2-tert-butyl-4-(2-thioxanthonylthio)phenyl](3-tert-butylphenyl) (2-thioxanthonyl)sulfonium tris(pentafluoroethyl) Trifluorophosphate]
12 | 24 | 25 | CC(C)(C)c1cccc([S+](c2ccc3sc4ccccc4c(=O)c3c2)c2ccc(Sc3ccc4sc5ccccc5c(=O)c4c3)cc2C(C)(C)C)c1 (stereo not drawn) [Example 23, [2-tert-butyl-4-(2-thioxanthonylthio)phenyl](3-tert-butylphenyl) (2-thioxanthonyl)sulfonium Hexafluoroantimonate]
13 | 25 | 30 | Cc1cc(C)cc([S+](c2ccc3sc4ccccc4c(=O)c3c2)c2c(C)cc(Sc3ccc4sc5ccccc5c(=O)c4c3)cc2C)c1 (stereo not drawn) [Example 28, [2,6-dimethyl-4-(2-thioxanthonylthio)phenyl](3,5-dimethylphenyl) (2-thioxanthonyl)sulfonium Hexafluorophosphate]
14 | 33 | 40 | Cc1cc(C)cc([S+](c2ccc3sc4ccccc4c(=O)c3c2)c2c(C)cc(Sc3ccc4sc5ccccc5c(=O)c4c3)cc2C)c1 (stereo not drawn) [Example 30, [2,6-dimethyl-4-(2-thioxanthonylthio)phenyl](3,5-dimethylphenyl) (2-thioxanthonyl)sulfonium tris(pentafluoroethyl) Trifluorophosphate]
15 | 23 | 25 | Cc1cc(C)cc([S+](c2ccc3sc4ccccc4c(=O)c3c2)c2c(C)cc(Sc3ccc4sc5ccccc5c(=O)c4c3)cc2C)c1 (stereo not drawn) [Example 31, [2,6-dimethyl-4-(2-thioxanthonylthio)phenyl](3,5-dimethylphenyl) (2-thioxanthonyl)sulfonium Hexafluoroantimonate]
16 | 25 | 25 | Cc1ccc(C)c([S+](c2ccc3sc4ccccc4c(=O)c3c2)c2cc(C)c(Sc3ccc4sc5ccccc5c(=O)c4c3)cc2C)c1 (stereo not drawn) [Example 36, [2,5-dimethyl-4-(2-thioxanthonylthio)phenyl](2,5-dimethylphenyl) (2-thioxanthonyl)sulfonium Potassium Hexafluorophosphate]
17 | 33 | 40 | Cc1ccc(C)c([S+](c2ccc3sc4ccccc4c(=O)c3c2)c2cc(C)c(Sc3ccc4sc5ccccc5c(=O)c4c3)cc2C)c1 (stereo not drawn) [Example 38, [2,5-dimethyl-4-(2-thioxanthonylthio)phenyl](2,5-dimethylphenyl) (2-thioxanthonyl)sulfonium tris(pentafluoroethyl) Trifluorophosphate]
18 | 23 | 29 | Cc1ccc(C)c([S+](c2ccc3sc4ccccc4c(=O)c3c2)c2cc(C)c(Sc3ccc4sc5ccccc5c(=O)c4c3)cc2C)c1 (stereo not drawn) [Example 39, [2,5-dimethyl-4-(2-thioxanthonylthio)phenyl](2,5-dimethylphenyl) (2-thioxanthonyl)sulfonium Hexafluoroantimonate]
19 | 31 | 33 | Cc1cc([S+](c2ccc3sc4ccccc4c(=O)c3c2)c2cc(C(C)(C)C)ccc2C)c(C(C)(C)C)cc1Sc1ccc2sc3ccccc3c(=O)c2c1 (stereo not drawn) [Example 44, [2-tert-butyl-5-methyl-4-(2-thioxanthonylthio)phenyl](5-tert-butyl-2-methylphenyl) (2-thioxanthonyl)sulfonium Hexafluorophosphate]
20 | 33 | 49 | Cc1cc([S+](c2ccc3sc4ccccc4c(=O)c3c2)c2cc(C(C)(C)C)ccc2C)c(C(C)(C)C)cc1Sc1ccc2sc3ccccc3c(=O)c2c1 (stereo not drawn) [Example 46, [2-tert-butyl-5-methyl-4-(2-thioxanthonylthio)phenyl](5-tert-butyl-2-methylphenyl) (2-thioxanthonyl)sulfonium tris(pentafluoroethyl) Trifluorophosphate]
21 | 30 | 33 | Cc1cc([S+](c2ccc3sc4ccccc4c(=O)c3c2)c2cc(C(C)(C)C)ccc2C)c(C(C)(C)C)cc1Sc1ccc2sc3ccccc3c(=O)c2c1 (stereo not drawn) [Example 47, [2-tert-butyl-5-methyl-4-(2-thioxanthonylthio)phenyl](5-tert-butyl-2-methylphenyl) (2-thioxanthonyl)sulfonium Hexafluoroantimonate]
22 | 38 | 45 | Cc1ccc(C)c([S+](c2ccc3sc4ccccc4c(=O)c3c2)c2cc(C)c(Oc3ccc4sc5ccccc5c(=O)c4c3)cc2C)c1 (stereo not drawn) [Example 49, [2,5-dimethyl-4-(2-thioxanthonyloxy)phenyl](2,5-dimethylphenyl) (2-thioxanthonyl)sulfonium tris(pentafluoroethyl) Trifluorophosphate]
23 | 30 | 40 | Cc1ccc(C)c([S+](c2ccc3sc4ccccc4c(=O)c3c2)c2cc(C)c([S+]([O-])c3ccc4sc5ccccc5c(=O)c4c3)cc2C)c1 (stereo not drawn) [Example 50, [2,5-dimethyl-4-(2-thioxanthonylsulfinyl)phenyl](2,5-dimethylphenyl) (2-thioxanthonyl)sulfonium tris(pentafluoroethyl) Trifluorophosphate]
24 | 32 | 40 | Cc1ccc(C)c([S+](c2ccc3sc4ccccc4c(=O)c3c2)c2cc(C)c(S(=O)(=O)c3ccc4sc5ccccc5c(=O)c4c3)cc2C)c1 (stereo not drawn) [Example 51, [2,5-dimethyl-4-(2-thioxanthonylsulfonyl)phenyl](2,5-dimethylphenyl) (2-thioxanthonyl)sulfonium tris(pentafluoroethyl) Trifluorophosphate]
